The source of these data is patent US20190185479A1, “BICYCLIC NITROGENATED HETEROCYCLIC COMPOUND” (MITSUBISHI TANABE PHARMA CORPORATION, priority 2016, published 2019).

One may read the IC50 as the concentration at which inhibition is half-maximal.

SMILES strings stand for the structures.

What all share (assay type): biochemical
The target of one test is T1, hPDE4D (Homo sapiens, UniProt Q08499).
T1 construct: purchased SB Drug Discovery
In words: PDE4 inhibition assay (IC50), Experimental Example 3. The settings on record: for IC50: hPDE4D, read-out: PDE inhibition assay IC50, PDE4. The protocol:
(§1) PDE7 inhibitory assay was carried out by reacting the mixture of a compound, hPDE7B, and cAMP, and measuring the residual cAMP by a detection method using LANCE (registered trademark) Ultra cAMP Detection Kit (ParkinElmer). The compound was dissolved in DMSO, and diluted so that the concentration would become 50 times of the final concentration. The hPDE7B and cAMP were diluted with an assay buffer (50 mmol/L Tris-HCl, 1 mmol/L MgCl2, 0.1% BSA, 0.5 mmol/L DTT, pH7.5) so that the hPDE7B would have an appropriate enzyme activity and the concentration of cAMP would become 6 nmol/L. To a 96 well plate were added the compound (2 μL) (DMSO final concentration: 2%), hPDE7B (48 μL), and cAMP (50 μL) (concentration at the reaction: 3 nmol/L), and the resulting mixture was reacted at room temperature for 60 minutes. The reaction solution (20 μL) was subjected to a TR-FRET method according to the protocol specified by the kit to measure the concentration of the residual cAMP. In the assay, to a tracer solution specified by the kit was added 0.5 mmol/L of 3-isobutyl-1-methylxanthine (IBMX, nonselective PDE inhibitor) in order to stop the PDE enzyme reaction after the completion of reaction until the measurement.
(§2) The prediction of PDE7 selectivity was evaluated by comparing each IC50 value of a compound against PDE4, 8, and 10 with the IC50 value of said compound against PDE7B.
(§3) hPDE4D, hPDE8B, and hPDE10A were prepared by the same method as [Method for preparing samples 2].
(§4) PDE4, 8, and 10 inhibitory assays were carried out by the same method as [Assay procedure 1].
(§5) The reaction without a compound wad defined as “0% inhibition”, the reaction without each PDE was defined as “100% inhibition”, and the calculation of IC50 value was carried out by the same method as <Method for data calculation 1>.

Another test addresses T2, Human PDE7B (hPDE7B) (Homo sapiens, UniProt Q9NP56).
T2 construct: made in house; host or cells: COS-7 cells
In words: Measurement of PDE7 inhibitory activity (Experimental Example 1; residual cAMP, LANCE Ultra cAMP TR-FRET). The settings on record: cAMP 3 nmol/L, room temperature 60 minutes. The essentials:
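hPDE7B from transfected COS-7 cells reacted with 3 nmol/L cAMP (final) and compound (2% DMSO) in 50 mmol/L Tris-HCl pH 7.5, 1 mmol/L MgCl2, 0.1% BSA, 0.5 mmol/L DTT, 60 min at room temperature. Reaction stopped with IBMX; residual cAMP measured by TR-FRET. Inhibition scaled between no-compound and no-enzyme controls.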
(Time-resolved FRET reads energy transfer from a long-lived donor to a nearby acceptor.)

For another test, the target named is T3, hPDE8B (Homo sapiens, UniProt O95263).
T3 construct: purchased SB Drug Discovery
In words: PDE8 inhibition assay (IC50), Experimental Example 3. The settings on record: for IC50: hPDE8B, read-out: PDE inhibition assay IC50, PDE8; for inhibition at 1 µM: at 1 μmol/L. The protocol: as §1, §2, §3, §4, §5

In another test the target is hPDE10A (Homo sapiens, UniProt Q9Y233). In words: PDE10 inhibition assay (IC50), Experimental Example 3. The note with it: for IC50: hPDE10A, read-out: PDE inhibition assay IC50, PDE10. The protocol:
as §1, §2, §3, §4, §5

Where [1] appears, read: read-out: inhibition rate (%) at prescribed concentration, PDE8.
Where [2] appears, read: at 10 μmol/L, read-out: inhibition rate (%) at prescribed concentration, PDE10.

T2 sequence (Q9NP56 whole entry): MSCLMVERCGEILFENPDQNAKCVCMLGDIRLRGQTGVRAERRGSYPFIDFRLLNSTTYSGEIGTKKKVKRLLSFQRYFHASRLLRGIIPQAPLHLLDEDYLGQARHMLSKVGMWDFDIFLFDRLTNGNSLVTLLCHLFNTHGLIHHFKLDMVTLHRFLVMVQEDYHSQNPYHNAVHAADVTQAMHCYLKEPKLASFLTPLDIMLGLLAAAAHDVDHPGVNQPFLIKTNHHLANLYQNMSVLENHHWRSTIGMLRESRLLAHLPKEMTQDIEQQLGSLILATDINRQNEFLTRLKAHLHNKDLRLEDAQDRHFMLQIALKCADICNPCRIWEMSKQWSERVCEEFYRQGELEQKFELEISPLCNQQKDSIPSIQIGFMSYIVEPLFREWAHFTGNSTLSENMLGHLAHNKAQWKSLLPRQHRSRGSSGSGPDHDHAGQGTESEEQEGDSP
T1 sequence (Q08499 whole entry): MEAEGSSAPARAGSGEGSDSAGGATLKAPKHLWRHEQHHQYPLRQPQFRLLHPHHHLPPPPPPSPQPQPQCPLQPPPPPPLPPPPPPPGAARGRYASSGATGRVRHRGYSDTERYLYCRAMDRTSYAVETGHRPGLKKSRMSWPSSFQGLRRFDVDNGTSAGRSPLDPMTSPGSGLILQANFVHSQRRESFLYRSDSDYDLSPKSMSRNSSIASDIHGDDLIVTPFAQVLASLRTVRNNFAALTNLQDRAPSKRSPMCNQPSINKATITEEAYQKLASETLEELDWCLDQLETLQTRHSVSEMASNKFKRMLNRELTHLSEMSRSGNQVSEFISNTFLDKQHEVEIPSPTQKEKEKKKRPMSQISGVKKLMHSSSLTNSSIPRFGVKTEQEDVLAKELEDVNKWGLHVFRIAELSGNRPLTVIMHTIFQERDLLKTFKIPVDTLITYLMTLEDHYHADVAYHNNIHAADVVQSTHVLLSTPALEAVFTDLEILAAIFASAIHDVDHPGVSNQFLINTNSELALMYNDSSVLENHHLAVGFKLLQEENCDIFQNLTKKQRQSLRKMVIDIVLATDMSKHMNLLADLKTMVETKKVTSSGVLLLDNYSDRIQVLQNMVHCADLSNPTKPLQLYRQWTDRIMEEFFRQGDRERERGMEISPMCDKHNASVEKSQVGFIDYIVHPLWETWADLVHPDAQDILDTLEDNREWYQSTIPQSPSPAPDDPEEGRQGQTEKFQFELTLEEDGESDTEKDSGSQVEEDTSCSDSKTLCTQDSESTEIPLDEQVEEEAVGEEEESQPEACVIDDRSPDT
T3 sequence (O95263 whole entry): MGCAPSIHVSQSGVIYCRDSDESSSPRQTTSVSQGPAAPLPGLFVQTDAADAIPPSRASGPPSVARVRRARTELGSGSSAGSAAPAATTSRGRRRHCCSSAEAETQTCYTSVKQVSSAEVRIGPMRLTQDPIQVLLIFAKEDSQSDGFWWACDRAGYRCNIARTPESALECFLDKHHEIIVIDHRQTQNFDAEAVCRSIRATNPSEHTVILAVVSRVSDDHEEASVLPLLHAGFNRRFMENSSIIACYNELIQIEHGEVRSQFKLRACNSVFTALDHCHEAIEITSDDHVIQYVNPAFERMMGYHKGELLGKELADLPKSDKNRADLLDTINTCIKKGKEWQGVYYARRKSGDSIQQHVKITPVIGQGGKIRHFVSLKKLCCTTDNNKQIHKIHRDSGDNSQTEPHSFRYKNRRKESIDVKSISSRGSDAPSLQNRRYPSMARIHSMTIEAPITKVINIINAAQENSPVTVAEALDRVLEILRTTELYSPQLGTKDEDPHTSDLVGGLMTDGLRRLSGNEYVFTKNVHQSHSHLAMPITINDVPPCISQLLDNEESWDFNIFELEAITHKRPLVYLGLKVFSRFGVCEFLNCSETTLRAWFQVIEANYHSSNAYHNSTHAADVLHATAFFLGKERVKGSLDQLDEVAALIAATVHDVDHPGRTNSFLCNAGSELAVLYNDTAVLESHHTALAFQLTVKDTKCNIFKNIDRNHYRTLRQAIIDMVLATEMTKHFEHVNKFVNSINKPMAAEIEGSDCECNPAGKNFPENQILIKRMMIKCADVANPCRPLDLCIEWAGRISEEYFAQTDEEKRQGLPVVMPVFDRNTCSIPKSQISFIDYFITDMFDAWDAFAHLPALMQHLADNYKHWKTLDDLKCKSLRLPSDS
Sequence of hPDE10A (Q9Y233 290-1055 limits assumed): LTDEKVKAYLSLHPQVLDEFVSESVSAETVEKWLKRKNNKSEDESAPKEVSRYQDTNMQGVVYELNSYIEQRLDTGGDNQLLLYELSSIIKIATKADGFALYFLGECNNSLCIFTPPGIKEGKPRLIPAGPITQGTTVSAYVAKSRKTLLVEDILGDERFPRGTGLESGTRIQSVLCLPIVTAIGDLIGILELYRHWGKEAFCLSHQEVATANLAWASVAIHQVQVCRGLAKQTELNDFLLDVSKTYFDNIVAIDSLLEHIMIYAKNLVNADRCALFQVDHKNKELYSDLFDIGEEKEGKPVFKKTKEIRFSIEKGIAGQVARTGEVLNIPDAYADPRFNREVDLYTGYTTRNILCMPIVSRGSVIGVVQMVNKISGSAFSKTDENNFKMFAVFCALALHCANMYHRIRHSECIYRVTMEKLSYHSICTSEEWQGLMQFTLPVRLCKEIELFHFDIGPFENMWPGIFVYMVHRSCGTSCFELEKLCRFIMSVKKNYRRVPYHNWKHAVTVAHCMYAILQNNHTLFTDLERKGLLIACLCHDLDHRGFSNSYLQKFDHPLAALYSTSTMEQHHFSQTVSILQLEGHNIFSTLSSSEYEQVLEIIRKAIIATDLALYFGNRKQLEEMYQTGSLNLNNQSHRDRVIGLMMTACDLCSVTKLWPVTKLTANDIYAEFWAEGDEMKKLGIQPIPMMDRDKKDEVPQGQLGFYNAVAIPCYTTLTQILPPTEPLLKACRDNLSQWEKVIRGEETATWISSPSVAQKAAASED

Consider `Nc1ncnn2c(C3CCCC(C(F)(F)F)C3)nnc12` (single isomer, unassigned) [Example 75, 3-[cis-3-(trifluoromethyl)cyclohexyl][1,2,4]triazolo[3,4-f][1,2,4]triazin-8-amine], for which the IC50 at hPDE4D is 27.1 µM; on Human PDE7B (hPDE7B), 0.053 µM; at hPDE8B it was 4.33 µM. The inhibition at 100 µM at hPDE10A (at 100 μmol/L, read-out: inhibition rate (%) at prescribed concentration, PDE10) was determined as 44%.

Consider `Nc1ncnc2c1nnn2C1CCCCC1(F)F` (single isomer, unassigned) [Example 115, 3-(2,2-difluorocyclohexyl)-3H-[1,2,3]triazolo[4,5-d]pyrimidin-7-amine], for which the concentration for half-maximal inhibition (IC50) on hPDE4D was 11.9 µM; against Human PDE7B (hPDE7B), under 0.01 µM; at hPDE10A, 12.3 µM. The inhibition at 1 µM at hPDE8B (setting [1]) came to 52%.

Take `CC1CCC(C(F)(F)F)CC1c1nnc2c(N)nccn12` (single isomer, unassigned) [Example 174, 3-[2-methyl-5-(trifluoromethyl)cyclohexyl][1,2,4]triazolo[4,3-a]pyrazin-8-amine]: the IC50 at hPDE4D came to 6 µM; against Human PDE7B (hPDE7B) it was 0.003 µM; on hPDE8B, 6.8 µM; at hPDE10A it was 1.3 µM.

As to `CC1CCC(F)(F)CC1c1nnc2c(N)nccn12` (single isomer, unassigned) [Example 175, 3-(cis-5,5-difluoro-2-methylcyclohexyl) [1,2,4]triazolo[4,3-a]pyrazin-8-amine], the concentration for half-maximal inhibition (IC50) on hPDE4D was 14.9 µM; at Human PDE7B (hPDE7B), under 0.01 µM; on hPDE8B, 19.5 µM; at hPDE10A, 1.9 µM.

Turning to `CC1(C)CC(c2nnc3c(N)nccn23)CC(F)(F)C1` (single isomer, unassigned) [Example 177, 3-(3,3-difluoro-5,5-dimethylcyclohexyl) [1,2,4]triazolo[4,3-a]pyrazin-8-amine], the IC50 was 21 µM on hPDE4D, 0.035 µM at Human PDE7B (hPDE7B), 13.7 µM on hPDE8B and 13.3 µM on hPDE10A.

Turning to `CC1CCCCC1n1nnc2c(N)ncnc21` (single isomer, unassigned) [Example 192, 3-(trans-2-methylcyclohexyl)-3H-[1,2,3]triazolo[4,5-d]pyrimidin-7-amine], the inhibition at 10 µM on hPDE4D (at 10 μmol/L, read-out: inhibition rate (%) at prescribed concentration, PDE4) is 45%. Besides, the concentration for half-maximal inhibition (IC50) against Human PDE7B (hPDE7B) was found to be 0.04 µM; on hPDE8B, 4.18 µM; at hPDE10A it was 8.25 µM.

Consider `Nc1ncnc2c1nnn2C1CCCCC1F` (single isomer, unassigned) [Example 194, 3-(cis-2-fluorocyclohexyl)-3H-[1,2,3]triazolo[4,5-d]pyrimidin-7-amine], for which the figures for the IC50 at hPDE4D, at Human PDE7B (hPDE7B) and at hPDE10A were 6.98 µM, 0.04 µM and 12.2 µM, respectively. At hPDE8B (setting [1]), the inhibition at 1 µM amounted to 79%.

Regarding `Nc1ncnc2c1nnn2C1CCCCC1F` (single isomer, unassigned) [Example 195, 3-(cis-2-fluorocyclohexyl)-3H-[1,2,3]triazolo[4,5-d]pyrimidin-7-amine], the IC50 at hPDE4D is 5.7 µM; against Human PDE7B (hPDE7B), 0.05 µM; at hPDE8B it was 1.41 µM; at hPDE10A, 30.6 µM.

For `CC1CCCC(n2nnc3c(N)ncnc32)C1` (single isomer, unassigned) [Example 196, 3-(cis-3-methylcyclohexyl)-3H-[1,2,3]triazolo[4,5-d]pyrimidin-7-amine], the half-maximal inhibitory concentration (IC50) on hPDE4D was 2.49 µM; against Human PDE7B (hPDE7B), under 0.01 µM; on hPDE8B, 0.29 µM. In addition, the inhibition at 10 µM on hPDE10A (setting [2]) is 49%.

Turning to `CC1CCCC(n2nnc3c(N)ncnc32)C1` (single isomer, unassigned) [Example 199, 3-(trans-3-methylcyclohexyl)-3H-[1,2,3]triazolo[4,5-d]pyrimidin-7-amine], the values for the concentration for half-maximal inhibition (IC50) at hPDE4D, against Human PDE7B (hPDE7B) and at hPDE8B were 3.84 µM, 0.03 µM and 6.87 µM, respectively. Also, on hPDE10A (at 10 μmol/L), the “inhibition rate (%) at prescribed concentration, PDE10” value is 29% at 10.

`Nc1ncnc2c1nnn2C1CCCC(C(F)F)C1` (single isomer, unassigned) [Example 200]: the IC50 stood at 0.54 µM at hPDE4D, 0.03 µM against Human PDE7B (hPDE7B), 0.99 µM at hPDE8B and 16.6 µM at hPDE10A.

As to `Nc1ncnc2c1nnn2C1CCCC(C(F)(F)F)C1` (single isomer, unassigned) [Example 202, 3-[cis-3-(trifluoromethyl)cyclohexyl]-3H-[1,2,3]triazolo[4,5-d]pyrimidin-7-amine], the concentration for half-maximal inhibition (IC50) at hPDE4D is 5.31 µM; on Human PDE7B (hPDE7B), 0.014 µM; on hPDE8B, 1.16 µM. The inhibition at 10 µM on hPDE10A (setting [2]) came to 27%.

As for `CC1(C)CCCC(c2nnc3c(N)nccn23)C1` (single isomer, unassigned) [Example 207, 3-(3,3-dimethylcyclohexyl) [1,2,4]triazolo[4,3-a]pyrazin-8-amine], the half-inhibitory concentration (IC50) on hPDE4D is 10.5 µM; on Human PDE7B (hPDE7B) it was under 0.01 µM; on hPDE8B, 1.5 µM; at hPDE10A it was 10.2 µM.

As for `Nc1nccn2c(C3CCCC4(CC4)C3)nnc12` (single isomer, unassigned) [Example 208, 3-(spiro[2,5]oct-5-yl) [1,2,4]triazolo[4,3-a]pyrazin-8-amine], the half-maximal inhibitory concentration (IC50) at hPDE4D was 10.3 µM; at Human PDE7B (hPDE7B), under 0.01 µM; at hPDE8B it was 3.4 µM; on hPDE10A it was 8.6 µM.

With `Nc1nccn2c(C3CCCC(C(F)(F)F)C3)nnc12` (single isomer, unassigned) [Example 210, 3-[cis-3-(trifluoromethyl)cyclohexyl][1,2,4]triazolo[4,3-a]pyrazin-8-amine], the IC50 at hPDE4D worked out at 5.45 µM; against Human PDE7B (hPDE7B), 0.013 µM; on hPDE8B, 3.93 µM; at hPDE10A it was 17.7 µM.

Consider `CC1CC(c2nnc3c(N)nccn23)CC(F)(F)C1` (single isomer, unassigned) [Example 214], for which the IC50 amounted to 6.4 µM at hPDE4D, 0.06 µM on Human PDE7B (hPDE7B), 17.1 µM at hPDE8B and 15.7 µM on hPDE10A.

For `CC1CC(c2nnc3c(N)nccn23)CC(F)(F)C1` (single isomer, unassigned) [Example 216, 3-(trans-3,3-difluoro-5-methylcyclohexyl[1,2,4]triazolo[4,3-a]pyrazin-8-amine], the half-maximal inhibitory concentration (IC50) on hPDE4D turned out to be 30.6 µM; against Human PDE7B (hPDE7B) it was 0.05 µM; at hPDE8B, 16.6 µM; at hPDE10A it was 37.9 µM.

Take `Nc1nccn2c(C3CCC4CC4C3)nnc12` (single isomer, unassigned) [Example 218, 3-(bicyclo[4.1.0]hept-3-yl) [1,2,4]triazolo[4,3-a]pyrazin-8-amine]: the concentration for half-maximal inhibition (IC50) on hPDE4D amounted to 4.1 µM; against Human PDE7B (hPDE7B) it was 0.08 µM; at hPDE8B, 2.6 µM; at hPDE10A it was 3 µM.

Take `Nc1nccn2c(C3CCC4CC4C3)nnc12` (single isomer, unassigned) [Example 219, 3-(bicyclo[4.1.0]hept-3-yl) [1,2,4]triazolo[4,3-a]pyrazin-8-amine]: the concentration for half-maximal inhibition (IC50) at hPDE4D came out at 2.1 µM; at Human PDE7B (hPDE7B), 0.05 µM; on hPDE8B it was 1.2 µM; at hPDE10A, 4.7 µM.

In the case of `Nc1nccn2c(C3CCC4CC4C3)nnc12` (single isomer, unassigned) [Example 221, 3-(bicyclo[4.1.0]hept-3-yl) [1,2,4]triazolo[4,3-a]pyrazin-8-amine], the inhibition at 0.1 µM turned out to be 55% at hPDE4D (at 0.1 μmol/L, read-out: inhibition rate (%) at prescribed concentration, PDE4) and 69% on hPDE8B (at 0.1 μmol/L, read-out: inhibition rate (%) at prescribed concentration, PDE8). The half-inhibitory concentration (IC50) against Human PDE7B (hPDE7B) worked out at 0.06 µM; at hPDE10A, 4.8 µM.

As for `CCC1CCCCN1c1nnc2c(N)nccn12` (single isomer, unassigned) [Example 222, 3-(2-ethylpiperidin-1-yl) [1,2,4]triazolo[4,3-a]pyrazin-8-amine], the IC50 at hPDE4D was determined as 3.24 µM; on Human PDE7B (hPDE7B), 0.08 µM; at hPDE8B, 10.6 µM; on hPDE10A, 6.42 µM.
